Experimental data published in publication PMC7933930, “Development of a small molecule that corrects misfolding and increases secretion of Z α1‐antitrypsin” (EMBO Molecular Medicine, 2021).

How the values were obtained:
[1] = biological target: T1, Z α1‐antitrypsin (Homo sapiens, UniProt P01009, E366K); test: TR‐FRET immunoassay (2C1 antibody) of Z α1‐antitrypsin polymerisation, 37°C, 72 h; format: biochemical; parameters: purified from the plasma of Z α1‐antitrypsin homozygotes; from tissue; host or cells: human plasma of Z α1-antitrypsin homozygotes
Text: Z α1‐antitrypsin is a conformationally dynamic molecule (Lomas et al, 1992; Knaupp et al, 2010) that represents a non‐classical target for drug discovery. A cell‐free assay approach to hit finding was undertaken so as not to miss compounds that bind α1‐antitrypsin and block polymerisation but lack the molecular properties to cross cell membranes. This comprised the following: (i) an encoded library technology (ELT) screen (Goodnow et al, 2017) of a library with a nominal diversity of 2 × 10^12 unique components to identify binders to Z α1‐antitrypsin and (ii) a high‐throughput screen (HTS) of the GSK compound collection (~ 1.7 million compounds) for small molecules that could block polymerisation of Z α1‐antitrypsin. […] In the HTS assay, polymerisation of purified Z α1‐antitrypsin was induced by incubation at 37°C for 72 h in the presence of test compounds, with end‐point quantification of polymers performed using the polymer‐specific monoclonal antibody, 2C1 (Miranda et al, 2010) in a TR‐FRET‐based immunoassay. […]
An antibody‐based time‐resolved fluorescence resonance energy transfer (TR‐FRET) assay was developed to monitor the polymerisation of 5 nM Z α1‐antitrypsin following incubation with varying concentrations of compounds at 37°C for 72 h. This assay used the 2C1 monoclonal antibody (1.25 nM) that is specific to pathological polymers of α1‐antitrypsin (Miranda et al, 2010), a polyclonal antibody (1/320 dilution) that binds to all forms of α1‐antitrypsin (Abcam product 9373), an anti‐mouse IgG (1.5 nM) labelled with fluorescence donor Eu‐W1024 (Perkin Elmer product AD0076) and an anti‐rabbit IgG (14.3 nM labelled with acceptor [APC]). […] The TR‐FRET signal was read on an Envision plate reader (PerkinElmer), by excitation of Europium at 337 nm and detection of emission at 665 and 620 nm.

[2] = biological target: T1, Z α1‐antitrypsin; test: Stoichiometry of inhibition against chymotrypsin, Z α1‐antitrypsin; format: biochemical; parameters: purified from the plasma of Z α1‐antitrypsin homozygotes; from tissue; host or cells: human plasma of Z α1-antitrypsin homozygotes; conditions: Z α1‐antitrypsin pre‐incubated with GSK716 (50µM), read-out: loss of protease inhibitory activity
Method: Mutations that interfere with the opening of β‐sheet A or that perturb its interaction with the N‐terminal portion of the reactive centre loop alter the ability of serpins to inhibit target proteases (Hood et al, 1994; Irving et al, 2014). The stoichiometry of inhibition (SI) was determined for M α1‐antitrypsin and Z α1‐antitrypsin in discontinuous experiments against a model target protease, chymotrypsin. The pre‐incubation of both variants with GSK716 led to a > 98% loss of protease inhibitory activity (Fig 5A).
Figure 5 The effect of GSK716 on serpin inhibitory activity • α1‐Antitrypsin was incubated at varying molar ratios with the model protease bovine α‐chymotrypsin, and the residual protease activity determined. […] The position of covalent α1‐antitrypsin‐chymotrypsin complex (cpx), native (nat) and cleaved (clv) is shown. • The inhibitory activity of α1‐antichymotrypsin against chymotrypsin (ach + chym), neuroserpin against trypsin (neus + tryp), and antithrombin against thrombin (atiii + thrombin) was determined in the presence and absence of GSK716. […]
The native state stability of α1‐antitrypsin on addition of compounds was investigated by thermal denaturation in the presence of a 5X concentration of SYPRO Orange dye solution (Life Technologies) (Nettleship et al, 2008). Resistance to heat‐induced polymerisation was determined using an end‐point constant‐temperature assay. […]

[3] = biological target: T2, CYP3A4 (Homo sapiens, UniProt P08684); test: CYP3A4 TDI fold IC50 shift (human liver microsomes, midazolam); format: in vitro ADME; conditions: probe midazolam (12.5 µM), read-out: time‐dependent inhibition of CYP3A4, fold shift in IC50
T2 construct: pre‐incubated at 37°C with human liver microsomes (0.1 mg/ml); from tissue; host or cells: human liver microsomes
Method: Seven concentrations of GSK716 (2, 4, 10, 20, 40, 100 and 200 µM) plus a vehicle control (0.25% v/v DMSO in pre‐incubation) were pre‐incubated at 37°C with human liver microsomes (0.1 mg/ml) and NADPH (1 mM) for a range of five pre‐incubation times (5, 10, 15, 20 and 30 min) with a 0 min pre‐incubation, in duplicate. At the end of the individual pre‐incubations, an aliquot of the pre‐incubation mixture was added to an incubation mixture in a 1:20 dilution for GSK716 with the specific CYP3A4 probe substrate, midazolam (12.5 µM, equivalent to 5xKm44) and NADPH (1 mM) for a 5 min. The reactions were terminated by transferring an aliquot of incubation mixture to methanol. The samples were mixed and then centrifuged at 2,500 rpm for 30 min at 4°C. Aliquots of the supernatant were diluted with formic acid (final concentration 0.1 % v/v) in deionised water containing internal standard (metoprolol; final concentration 0.03 mg/l). Samples were analysed by LC‐MS/MS.

T1 sequence (P01009 25-418 E366K): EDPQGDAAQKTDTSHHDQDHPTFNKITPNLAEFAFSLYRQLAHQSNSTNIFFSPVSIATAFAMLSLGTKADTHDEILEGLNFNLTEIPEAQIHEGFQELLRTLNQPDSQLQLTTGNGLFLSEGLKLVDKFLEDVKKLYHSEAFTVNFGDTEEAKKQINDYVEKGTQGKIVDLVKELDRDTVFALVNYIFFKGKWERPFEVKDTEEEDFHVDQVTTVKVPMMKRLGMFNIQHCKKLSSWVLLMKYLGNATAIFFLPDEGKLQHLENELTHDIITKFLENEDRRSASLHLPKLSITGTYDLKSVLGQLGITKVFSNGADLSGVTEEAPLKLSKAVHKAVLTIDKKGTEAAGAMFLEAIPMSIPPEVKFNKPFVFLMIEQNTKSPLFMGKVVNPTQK
T2 sequence (P08684 whole entry): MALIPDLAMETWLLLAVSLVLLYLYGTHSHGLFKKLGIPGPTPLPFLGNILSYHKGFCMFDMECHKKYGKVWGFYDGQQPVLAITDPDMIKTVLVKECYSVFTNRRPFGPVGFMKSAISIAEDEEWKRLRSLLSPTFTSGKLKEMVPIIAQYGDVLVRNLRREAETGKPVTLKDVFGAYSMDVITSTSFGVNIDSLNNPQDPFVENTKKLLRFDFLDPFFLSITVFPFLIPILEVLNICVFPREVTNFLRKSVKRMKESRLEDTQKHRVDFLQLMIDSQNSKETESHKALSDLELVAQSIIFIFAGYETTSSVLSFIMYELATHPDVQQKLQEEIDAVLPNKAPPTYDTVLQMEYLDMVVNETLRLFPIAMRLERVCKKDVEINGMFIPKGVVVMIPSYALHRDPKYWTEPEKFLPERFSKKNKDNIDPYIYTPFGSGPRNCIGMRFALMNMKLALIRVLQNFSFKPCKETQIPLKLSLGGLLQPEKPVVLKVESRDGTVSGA

Structure (SMILES): CCC[C@@H](NC(=O)c1cccc2c1CC(=O)N2)[C@@H](O)c1cccc(F)c1C [GSK716]
- IC50 ([1]; 5 nM Z α1‐antitrypsin, 37°C, 72 h, read-out: pIC50, blocking polymerisation in the TR‐FRET immunoassay (converted)): 5.01 nM
- increase in potency over GSK425 ([1]; TR‐FRET polymerisation immunoassay): ~ 100 fold
- inhibition at 50 µM [2]: > 98%
- IC50 shift [3]: 1.59
